# Values quoted from earlier work in US8765768B2, “Heterocyclic compounds and their uses” (Amgen Inc., priority 2010, dated 2014).
# What was measured:
# [1] = tested on: mouse model of rheumatoid arthritis; details: in vivo
# [2] = tested on: model of systemic lupus erythematosis; details: in vivo
# [3] = molecular target: T1, p110δ (Homo sapiens, UniProt O00329)
# T1 sequence (O00329 1-1044): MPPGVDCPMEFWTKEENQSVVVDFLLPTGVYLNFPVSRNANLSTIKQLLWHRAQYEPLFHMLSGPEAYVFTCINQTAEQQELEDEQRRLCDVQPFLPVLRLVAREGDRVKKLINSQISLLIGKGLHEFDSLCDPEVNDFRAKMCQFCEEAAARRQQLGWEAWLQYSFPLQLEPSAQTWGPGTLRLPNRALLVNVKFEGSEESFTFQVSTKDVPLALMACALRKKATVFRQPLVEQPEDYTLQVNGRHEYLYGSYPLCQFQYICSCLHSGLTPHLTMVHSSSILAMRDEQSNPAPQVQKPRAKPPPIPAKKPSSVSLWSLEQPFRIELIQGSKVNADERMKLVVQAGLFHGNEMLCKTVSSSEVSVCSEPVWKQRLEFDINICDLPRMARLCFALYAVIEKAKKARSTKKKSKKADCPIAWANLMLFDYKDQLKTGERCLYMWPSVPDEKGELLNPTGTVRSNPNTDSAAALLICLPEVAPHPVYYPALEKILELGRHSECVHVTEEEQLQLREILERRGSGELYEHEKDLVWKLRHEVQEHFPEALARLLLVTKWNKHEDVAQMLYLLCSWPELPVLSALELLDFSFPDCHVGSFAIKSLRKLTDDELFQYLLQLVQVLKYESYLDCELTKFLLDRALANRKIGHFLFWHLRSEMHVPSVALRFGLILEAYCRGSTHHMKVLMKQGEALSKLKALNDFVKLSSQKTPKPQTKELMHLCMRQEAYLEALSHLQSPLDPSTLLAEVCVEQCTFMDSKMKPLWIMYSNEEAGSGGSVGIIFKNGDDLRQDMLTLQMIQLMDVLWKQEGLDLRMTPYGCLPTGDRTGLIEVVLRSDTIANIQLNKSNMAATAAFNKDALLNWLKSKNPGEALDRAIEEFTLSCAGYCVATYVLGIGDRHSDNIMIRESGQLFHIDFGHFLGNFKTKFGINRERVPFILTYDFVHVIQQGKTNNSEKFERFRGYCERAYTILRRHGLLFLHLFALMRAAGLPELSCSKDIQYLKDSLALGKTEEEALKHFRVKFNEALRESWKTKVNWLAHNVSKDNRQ
# [4] = tested on: protein kinases
# [5] = tested on: ovalbumin-induced airway inflammation
Compound,efficacy in a mouse model of rheumatoid arthritis [1],onset of disease in a model of systemic lupus erythematosis [2],inhibits p110δ [3],activity against any protein kinases tested [4],inflammation and disease in a murine model of asthma [5]
O=C1NC(=O)/C(=C\c2ccc3nccnc3c2)S1 [AS 605240],efficacious,delay onset of disease,,,
Cc1ccccc1-n1c(Cn2cnc3c(N)ncnc32)nc2cccc(C)c2c1=O [IC87114],,,high nanomolar range (triple digit),no activity,significantly ameliorate inflammation and disease
